Patent US9155804B2, “Contrast enhancement agents and method of use thereof” (General Electric Company, priority 2012, dated 2015)

Columns and labels:
[1] = tested on: MATBIII breast cancer cells; experiment: Dynamic contrast enhanced MR tumor imaging in MATBIII tumor bearing mice; assay type: in vivo, SCID mice; settings: DCE MR, dose 0.2 mmol/kg Gd, Fe, mammary MBIII rodent tumor model
Procedure: Cell Preparation: MATBIII breast cells (available from ATCC®) were trypsinized using 1× trypsin-EDTA. The cells were washed using IX phosphate buffered saline (PBS) and aliquots of 2×10^6 cells were made in 1×PBS (100 uL). Prior to injection into the subject, 50 μL of basement membrane matrix (Matrigel®, BD Biosciences) was added to each aliquot.
Tumor Induction: All procedures involving animals were completed under protocols approved by the GE Global Research Institutional Animal Care and Use Committee. Female, 5-7 weeks old, SCID mice (Charles River Laboratories) were briefly anesthetized with 2% isoflurane and injected with 1×10^6 MATBIII breast cancer cells in 1×PBS (100 μL) and Matrigel SC to their left flank. The animals were monitored for 7 days post tumor cell injections at which point, precontrast agent MR images of the resulting lesions, typically 1 cm in diameter, were collected using the sequences described below.

[2] = Hydrodynamic size assay (dynamic light scattering); assay type: physicochemical
Procedure: The dilution was carried out to yield approximately 20,000 counts per second during the DLS measurement and the sample was allowed to equilibrate for 10 minutes in the instrument prior to data collection.

CNC[C@H](O)[C@@H](O)[C@H](O)[C@H](O)CO.CNC[C@H](O)[C@@H](O)[C@H](O)[C@H](O)CO.O=C([O-])CN(CCN(CC(=O)[O-])CC(=O)O)CCN(CC(=O)[O-])CC(=O)O.[Gd+3] [Magnevist - Gd]
Tumor-to-muscle signal enhancement ratio (Tumor: Muscle), Average [1]: 3.6
Agent size (hydrodynamic diameter) [2]: Magnevist - Gd (1 nm)
